Consider two substances from US20070218030A1, “Dietetic Preparation for Prevention and Treatment of Osteoporosis” (priority 2003, published 2007).

This assay deals with ovarectomised female rats. As to the kind of experiment: experimental osteoporosis in ovarectomised female rats, oral administration. As to conditions: for symptoms of osteoporosis: female rats after surgically removed ovaries, administered orally, not yet published experimental results. The class given is in vivo. How it is done:
An experiment was carried out on ovarectomised female rats in which an experimental osteoporosis was induced.

[1] abbreviates: ovarectomised female rats with induced experimental osteoporosis, oral, molecular weight over 500 000 g/mol, dosage 150 to 4500 μg/kg.

As to calcium hyaluronate, the symptoms of osteoporosis entry is “able to suppress symptoms of osteoporosis”.

sodium hyaluronate: the symptoms of osteoporosis result is reported as “able to suppress symptoms of osteoporosis”. Further, under setting [1], the bone density entry is given as “normalisation of bone density” and the “excretion of the metabolite of bone matrix breakdown into urine” value is “returned to normal”.
